# *1 amine or outer side, *2 acyl side, *3 side chain or, on linkers, in order; H or OH if unused. Where a SMILES comes first, the peptide text is derived from it. Side-chain parts run from the residue outwards. [ ]: non-standard residue; d: D form. The star is where a group is joined. γGlu = O=C(O)[C@H](CCC(=O)[*:2])N[*:1]; Palmitoyl = CCCCCCCCCCCCCCCC(=O)*; Aib = CC(C)(N)C(=O)O
# Assays:
# [1] = target: T1, endogenous glucagon receptor (Rattus norvegicus, UniProt P30082); assay: Agonistic activity on endogenous glucagon receptor (glycogen synthesis rate in primary rat hepatocytes); format: cell-based; conditions: inhibition of glycogen synthesis rate, 3 hours, read-out: EC50 GLP-1R Rat hepat.
# T1 construct: Agonistic activity of the test compounds on endogenous glucagon receptor; endogenous in cells; host or cells: primary rat hepatocytes
# How it was run: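 Primary rat hepatocytes (40,000 cells/well, cultured 24 h) incubated 3 h with compound in KRBH buffer with 0.1% BSA, 22.5 mM glucose and D-[U14C]glucose. 14C incorporated into precipitated glycogen counted, background-subtracted and expressed as % of 0.1% DMSO vehicle (100% CTL). pEC50 from cpm versus log concentration; agonism lowers glycogen synthesis.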
# [2] = target: T2, endogenous GLP-1 receptors (Mus musculus, UniProt O35659); assay: Agonistic activity on endogenous GLP-1 receptor (cAMP, murine insulinoma cell line); format: cell-based; conditions: intracellular cAMP, 15 minutes at 26° C.; read-out: EC50 GLP-1R (murine insulinoma cells)
# T2 construct: Agonistic activity of the test compounds on endogenous GLP-1 receptors; endogenous in cells
# T2 sequence (O35659 22-463): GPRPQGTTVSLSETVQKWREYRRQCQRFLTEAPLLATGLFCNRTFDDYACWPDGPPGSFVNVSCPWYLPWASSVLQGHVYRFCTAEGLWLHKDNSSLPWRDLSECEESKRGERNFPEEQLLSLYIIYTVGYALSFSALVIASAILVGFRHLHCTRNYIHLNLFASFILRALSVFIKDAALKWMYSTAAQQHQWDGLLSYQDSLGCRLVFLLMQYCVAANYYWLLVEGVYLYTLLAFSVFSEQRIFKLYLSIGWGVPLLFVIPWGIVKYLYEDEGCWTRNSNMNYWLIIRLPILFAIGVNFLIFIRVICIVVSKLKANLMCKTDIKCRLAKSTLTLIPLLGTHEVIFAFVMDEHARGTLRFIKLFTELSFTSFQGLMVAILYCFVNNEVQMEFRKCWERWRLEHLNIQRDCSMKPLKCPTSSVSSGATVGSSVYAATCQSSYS
# How it was run: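 Murine insulinoma cells were exposed 15 min at 26° C in KRBH with 0.1% DMSO to compound or GLP-1 ([…]), then cAMP was measured by AlphaScreen against a standard curve, in quadruplicate. pEC50 came from curve fits; % CTL was normalised to the maximal GLP-1 cAMP response.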
# T1 sequence (P30082 27-485): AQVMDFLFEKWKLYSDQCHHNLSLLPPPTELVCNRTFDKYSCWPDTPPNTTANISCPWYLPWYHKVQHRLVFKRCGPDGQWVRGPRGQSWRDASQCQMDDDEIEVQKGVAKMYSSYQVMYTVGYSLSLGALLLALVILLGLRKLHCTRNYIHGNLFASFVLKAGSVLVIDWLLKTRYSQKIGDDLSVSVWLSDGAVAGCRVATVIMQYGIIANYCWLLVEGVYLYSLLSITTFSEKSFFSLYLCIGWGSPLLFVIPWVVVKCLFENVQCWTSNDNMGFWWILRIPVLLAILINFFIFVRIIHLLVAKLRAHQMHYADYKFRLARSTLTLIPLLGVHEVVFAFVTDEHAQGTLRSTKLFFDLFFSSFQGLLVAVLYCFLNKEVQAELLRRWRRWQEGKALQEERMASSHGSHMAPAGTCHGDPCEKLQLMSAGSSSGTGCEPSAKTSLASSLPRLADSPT
SMILES,EC50 [1],EC50 [2]
"CCCCCCCCCCCCCCCC(=O)N[C@@H](CCC(=O)NCCCC[C@H](NC(=O)[C@H](CO)NC(=O)[C@H](CC(=O)O)NC(=O)[C@H](CC(C)C)NC(=O)[C@H](Cc1ccc(O)cc1)NC(=O)[C@H](CCCCN)NC(=O)[C@H](CO)NC(=O)[C@H](Cc1ccc(O)cc1)NC(=O)[C@H](CC(=O)O)NC(=O)[C@H](CO)NC(=O)[C@@H](NC(=O)[C@H](Cc1ccccc1)NC(=O)[C@@H](NC(=O)CNC(=O)[C@H](CCC(N)=O)NC(=O)[C@H](CO)NC(=O)[C@@H](N)Cc1c[nH]cn1)[C@@H](C)O)[C@@H](C)O)C(=O)N[C@@H](C)C(=O)N[C@@H](C)C(=O)N[C@@H](CCC(=O)O)C(=O)N[C@@H](CC(=O)O)C(=O)N[C@@H](Cc1ccccc1)C(=O)N[C@H](C(=O)N[C@@H](CCC(=O)O)C(=O)N[C@@H](Cc1c[nH]c2ccccc12)C(=O)N[C@@H](CC(C)C)C(=O)N[C@@H](CC(C)C)C(=O)N[C@@H](CCCNC(=N)N)C(=O)N[C@@H](C)C(N)=O)C(C)C)C(=O)O [Compound 7, H-HSQGTFTSDYSKYLDS-K(Hexadecanoyl-isoGlu)-AAEDFVEWLLRA-NH2] (H-HSQGTFTSDYSKYLDSK([γGlu-Palmitoyl])AAEDFVEWLLRA-NH2)",1.92 nM,0.84 nM
"CCCCCCCCCCCCCCCC(=O)N[C@@H](CCC(=O)NCCCC[C@H](NC(=O)[C@H](CO)NC(=O)[C@H](CC(=O)O)NC(=O)[C@H](CC(C)C)NC(=O)[C@H](Cc1ccc(O)cc1)NC(=O)[C@H](CCCCN)NC(=O)[C@H](CO)NC(=O)[C@H](Cc1ccc(O)cc1)NC(=O)[C@H](CC(=O)O)NC(=O)[C@H](CO)NC(=O)[C@@H](NC(=O)[C@H](Cc1ccccc1)NC(=O)[C@@H](NC(=O)CNC(=O)[C@H](CCC(N)=O)NC(=O)[C@H](CO)NC(=O)[C@@H](N)Cc1c[nH]cn1)[C@@H](C)O)[C@@H](C)O)C(=O)N[C@@H](C)C(=O)N[C@@H](C)C(=O)N[C@@H](Cc1c[nH]cn1)C(=O)N[C@@H](CC(=O)O)C(=O)N[C@@H](Cc1ccccc1)C(=O)N[C@H](C(=O)N[C@@H](CCC(=O)O)C(=O)N[C@@H](Cc1c[nH]c2ccccc12)C(=O)N[C@@H](CC(C)C)C(=O)N[C@@H](CC(C)C)C(=O)N[C@@H](CO)C(=O)N[C@@H](C)C(=O)O)C(C)C)C(=O)O [Compound 2, H-HSQGTFTSDYSKYLDS-K(Hexadecanoyl-isoGlu)-AAHDFVEWLLSA-OH] (H-HSQGTFTSDYSKYLDSK([γGlu-Palmitoyl])AAHDFVEWLLSA-OH)",0.43 nM,1.41 nM
"CCCCCCCCCCCCCCCC(=O)N[C@@H](CCC(=O)NCCCC[C@H](NC(=O)[C@H](CO)NC(=O)[C@H](CC(=O)O)NC(=O)[C@H](CC(C)C)NC(=O)[C@H](Cc1ccc(O)cc1)NC(=O)[C@H](CCCNC(=N)N)NC(=O)[C@H](CO)NC(=O)[C@H](Cc1ccc(O)cc1)NC(=O)[C@H](CC(=O)O)NC(=O)[C@H](CO)NC(=O)[C@@H](NC(=O)[C@H](Cc1ccccc1)NC(=O)[C@@H](NC(=O)CNC(=O)[C@H](CCC(N)=O)NC(=O)[C@H](CO)NC(=O)[C@@H](N)Cc1c[nH]cn1)[C@@H](C)O)[C@@H](C)O)C(=O)N[C@@H](C)C(=O)N[C@@H](C)C(=O)N[C@@H](CCC(=O)O)C(=O)N[C@@H](CC(=O)O)C(=O)N[C@@H](Cc1ccccc1)C(=O)N[C@H](C(=O)N[C@@H](CCC(=O)O)C(=O)N[C@@H](Cc1c[nH]c2ccccc12)C(=O)N[C@@H](CC(C)C)C(=O)N[C@@H](CC(C)C)C(=O)N[C@@H](CCCNC(=N)N)C(=O)N[C@@H](C)C(N)=O)C(C)C)C(=O)O [Compound 6, H-HSQGTFTSDYSRYLDS-K(Hexadecanoyl-isoGlu)-AAEDFVEWLLRA-NH2] (H-HSQGTFTSDYSRYLDSK([γGlu-Palmitoyl])AAEDFVEWLLRA-NH2)",2.87 nM,1.14 nM
"CCCCCCCCCCCCCCCC(=O)N[C@@H](CCC(=O)NCCCC[C@H](NC(=O)[C@H](CCC(=O)O)NC(=O)[C@H](CC(=O)O)NC(=O)[C@H](CC(C)C)NC(=O)[C@H](Cc1ccc(O)cc1)NC(=O)[C@H](CCCCN)NC(=O)[C@H](CO)NC(=O)[C@H](Cc1ccc(O)cc1)NC(=O)[C@H](CC(=O)O)NC(=O)[C@H](CO)NC(=O)[C@@H](NC(=O)[C@H](Cc1ccccc1)NC(=O)[C@@H](NC(=O)CNC(=O)[C@H](CCC(N)=O)NC(=O)C(C)(C)NC(=O)[C@@H](N)Cc1c[nH]cn1)[C@@H](C)O)[C@@H](C)O)C(=O)N[C@@H](C)C(=O)N[C@@H](C)C(=O)N[C@@H](CCCCN)C(=O)N[C@@H](CC(=O)O)C(=O)N[C@@H](Cc1ccccc1)C(=O)N[C@H](C(=O)N[C@@H](CCC(=O)O)C(=O)N[C@@H](Cc1c[nH]c2ccccc12)C(=O)N[C@@H](CC(C)C)C(=O)N[C@@H](CC(C)C)C(=O)N[C@@H](CO)C(=O)N[C@@H](C)C(N)=O)[C@@H](C)CC)C(=O)O [Compound 4, H-H-Aib-QGTFTSDYSKYLDE-K(Hexadecanoyl-isoGlu)-AAKDFIEWLLSA-NH2] (H-H[Aib]QGTFTSDYSKYLDEK([γGlu-Palmitoyl])AAKDFIEWLLSA-NH2)",0.35 nM,0.95 nM
"CCCCCCCCCCCCCCCC(=O)N[C@@H](CCC(=O)NCCCC[C@H](NC(=O)[C@H](CO)NC(=O)[C@H](CC(=O)O)NC(=O)[C@H](CC(C)C)NC(=O)[C@H](Cc1ccc(O)cc1)NC(=O)[C@H](CCCCN)NC(=O)[C@H](CO)NC(=O)[C@H](Cc1ccc(O)cc1)NC(=O)[C@H](CC(=O)O)NC(=O)[C@H](CO)NC(=O)[C@@H](NC(=O)[C@H](Cc1ccccc1)NC(=O)[C@@H](NC(=O)CNC(=O)[C@H](CCC(N)=O)NC(=O)[C@H](CO)NC(=O)[C@@H](N)Cc1c[nH]cn1)[C@@H](C)O)[C@@H](C)O)C(=O)N[C@@H](C)C(=O)N[C@@H](C)C(=O)N[C@@H](Cc1c[nH]cn1)C(=O)N[C@@H](CC(=O)O)C(=O)N[C@@H](Cc1ccccc1)C(=O)N[C@H](C(=O)N[C@@H](CCC(=O)O)C(=O)N[C@@H](Cc1c[nH]c2ccccc12)C(=O)N[C@@H](CC(C)C)C(=O)N[C@@H](CC(C)C)C(=O)N[C@@H](CCCNC(=N)N)C(=O)N[C@@H](C)C(=O)O)C(C)C)C(=O)O [Compound 3, H-HSQGTFTSDYSKYLDS-K(Hexadecanoyl-isoGlu)-AAHDFVEWLLRA-OH] (H-HSQGTFTSDYSKYLDSK([γGlu-Palmitoyl])AAHDFVEWLLRA-OH)",0.16 nM,1.06 nM
"CCCCCCCCCCCCCCCC(=O)N[C@@H](CCC(=O)NCCCC[C@H](NC(=O)[C@H](CO)NC(=O)[C@H](CC(=O)O)NC(=O)[C@H](CC(C)C)NC(=O)[C@H](Cc1ccc(O)cc1)NC(=O)[C@H](CCCCN)NC(=O)[C@H](CO)NC(=O)[C@H](Cc1ccc(O)cc1)NC(=O)[C@H](CC(=O)O)NC(=O)[C@H](CO)NC(=O)[C@@H](NC(=O)[C@H](Cc1ccccc1)NC(=O)[C@@H](NC(=O)CNC(=O)[C@H](CCC(N)=O)NC(=O)[C@H](CO)NC(=O)[C@@H](N)Cc1c[nH]cn1)[C@@H](C)O)[C@@H](C)O)C(=O)N[C@@H](C)C(=O)N[C@@H](C)C(=O)N[C@@H](Cc1c[nH]cn1)C(=O)N[C@@H](CC(=O)O)C(=O)N[C@@H](Cc1ccccc1)C(=O)N[C@H](C(=O)N[C@@H](CCC(=O)O)C(=O)N[C@@H](Cc1c[nH]c2ccccc12)C(=O)N[C@@H](CC(C)C)C(=O)N[C@@H](CC(C)C)C(=O)N[C@@H](CCCNC(=N)N)C(=O)O)C(C)C)C(=O)O [Compound 9, H-HSQGTFTSDYSKYLDS-K(Hexadecanoyl-isoGlu)-AAHDFVEWLLR-OH] (H-HSQGTFTSDYSKYLDSK([γGlu-Palmitoyl])AAHDFVEWLLR-OH)",0.37 nM,1.02 nM
"CCCCCCCCCCCCCCCC(=O)N[C@@H](CCC(=O)NCCCC[C@H](NC(=O)[C@H](CO)NC(=O)[C@H](CC(=O)O)NC(=O)[C@H](CC(C)C)NC(=O)[C@H](Cc1ccc(O)cc1)NC(=O)[C@H](CCCNC(=N)N)NC(=O)[C@H](CO)NC(=O)[C@H](Cc1ccc(O)cc1)NC(=O)[C@H](CC(=O)O)NC(=O)[C@H](CO)NC(=O)[C@@H](NC(=O)[C@H](Cc1ccccc1)NC(=O)[C@@H](NC(=O)CNC(=O)[C@H](CCC(N)=O)NC(=O)[C@H](CO)NC(=O)[C@@H](N)Cc1c[nH]cn1)[C@@H](C)O)[C@@H](C)O)C(=O)N[C@@H](C)C(=O)N[C@@H](C)C(=O)N[C@@H](Cc1c[nH]cn1)C(=O)N[C@@H](CC(=O)O)C(=O)N[C@@H](Cc1ccccc1)C(=O)N[C@H](C(=O)N[C@@H](CCC(=O)O)C(=O)N[C@@H](Cc1c[nH]c2ccccc12)C(=O)N[C@@H](CC(C)C)C(=O)N[C@@H](CC(C)C)C(=O)N[C@@H](CO)C(=O)N[C@@H](C)C(N)=O)C(C)C)C(=O)O [Compound 12, H-HSQGTFTSDYSRYLDS-K(Hexadecanoyl-isoGlu)-AAHDFVEWLLSA-NH2] (H-HSQGTFTSDYSRYLDSK([γGlu-Palmitoyl])AAHDFVEWLLSA-NH2)",0.24 nM,1.62 nM
